Reference: patent publication US9700051B2, “Use of squalamine or analogue as a disinfecting agent” (ASSISTANCE PUBLIQUE—HOPITAUX DE MARSEILLE, priority 2012, dated 2017)
≈ marks a conversion by molar mass, not a printed value. Like-named read-outs stand apart in the source and are kept apart here.

Columns and labels:
[1] = tested on: S. aureus DSM 799; assay: In vitro model of nebulizer disinfection with aqueous solution; format: cell-based, Staphylococcus aureus; settings: for log reduction for bacteria (S. aureus): 80 mg/ml; for log reduction for bacteria (S. aureus) / log reduction in viable cells of S. aureus: 20 minutes; for log reduction in viable cells of S. aureus: 0.5 g/l; for dose needed to ensure nebulizer disinfection: S. aureus DSM 799
From the text: (§1) In the different tests below the strains used were Pseudomonas aeruginosa DSM 939 (ATCC 15442), Staphylococcus aureus DSM 799 (ATCC 6538), Candida albicans DSM 1386 (ATCC 10231) and Aspergillus niger ATCC 16404.
(§2) Nebulizers of Pari LC type were infected with bacteria (S. aureus and P. aeruginosa) via a suspension calibrated at 10^8 cfu/ml, and with fungi (C. albicans and A. niger) via a suspension calibrated at 10^7 cfu/ml. These nebulizers were then disinfected by soaking in a squalamine solution for 20 min, Glutaraldehyde and korsolex (peracetic acid) being used as inhibition control.
(§3) The microbial contamination of the nebulizer was obtained in vitro by soaking the inner part of the nebulizer (Pari LC, SPRINT SP, Pari, Germany) in a bacterial suspension prepared in Mueller Hinton broth containing 1·10^8 to 5·10^8 cfu/ml of bacteria (NF EN 1040, 1997) for 20 minutes. Disinfection was obtained by soaking this same part in a sterile water solution containing squalamine or ASD 2 for […] at the determined concentration in relation to the bacteria under consideration. For the fungi, suspensions of 1·10^7 to 5·10^7 cfu/ml (NF EN 1275, 1997) were prepared in Sabouraud broth and after incubation the nebulizer was soaked in sterile water containing squalamine or ASD 2. The nebulizer was then rinsed with two successive solutions of sterile water. The bacterial or fungal count was performed on the second wash bath. The counting of bacterial or fungal colonies was conducted on Tryptone Soya Agar for 24 hours for bacterial growth and on malt extract agar-agar for fungi at 37° C. for 48 hours.
(§4) The bactericidal and fungicidal test was performed three times in independent experiments and each bacterium and mould was evaluated separately. The concentration of squalamine and ASD 2 was increased until the required bactericidal and fungicidal activity was obtained. The disinfection time was set at 20 minutes for the first case and subsequently extended to 6 hours for A. Niger.

[2] = tested on: Pseudomonas aeruginosa DSM 939 (ATCC 15442); assay: Disinfecting antibacterial action on infected nebulizer as per standard FR-EN 1040; format: cell-based; settings: aqueous solution 0.5 g/l, within 1 hour
Method: as §1
(§5) The microbial contamination of nebulizers was obtained in vitro by soaking the inner part of nebulizers (Pari LC, SPRINT SP, Pari, Germany) in a bacterial suspension prepared in Mueller Hinton broth containing 1·10^8 to 5·10^8 cfu/mL of bacteria. Disinfection was performed by soaking this same part in a solution of sterile water containing squalamine for 1 h at a determined concentration of 0.5 g/L for the bacteria under consideration (S. aureus or P. aeruginosa). The nebulizer was then rinsed with two successive sterile water solutions. The bacterial count was performed on the second wash bath on Tryptone Soya Agar (24 h).

[3] = tested on: Staphylococcus aureus DSM 799 (ATCC 6538); assay: as above; format: cell-based; settings: aqueous solution 0.5 g/l, within 1 hour
Method: as §1, §5

[4] = tested on: A. niger ATCC 16404; assay: In vitro model of nebulizer disinfection with aqueous solution; format: cell-based, Aspergillus niger; settings: for log reduction in viable cells of A. niger: 2 g/l, within 6 hours; for concentration enabling a fungicidal effect (with spore eradication) on A. niger: 6 hours; for dose needed to ensure nebulizer disinfection: A. niger ATCC 16404; for decrease for A. Niger: first attempt, 80 to 190 mg/ml, 20 minutes
From the text: as §1, §2, §3, §4

[5] = tested on: C. albicans DSM 1386; assay: Minimum Inhibitory Concentration (MIC); format: cell-based; settings: Candida albicans, DSM1386
From the text: as §1
(§6) 4.2.1) The nebulizers used were infected with different bacterial suspensions (S. aureus and P. aeruginosa) calibrated at 10^8 cfu/ml or fungal suspensions (C. albicans and A. niger) calibrated at 10^7 cfu/ml. In a preliminary set of experiments, values of Minimum Inhibitory Concentration (MIC) and Time Kill of squalamine and ASD 2 were determined against chosen reference bacteria and fungi (MIC only). […] A time of 20 minutes was defined to carry out nebulizer disinfection using squalamine whilst korsolex PAA and the 2% solution of glutaraldehyde were used for a time of 15 minutes following the manufacturers' instructions to obtain disinfecting properties. At a first attempt, it was able to be shown that the use of a dose of 80 mg/ml squalamine or ASD-2 for 20 minutes leads to a 2- and 3-log reduction for bacteria whilst a 2-log reduction for C. albicans was only obtained when using a concentration of squalamine or ASD-2 of 190 mg/ml. […] Nonetheless, squalamine and ASD 2 used at a concentration stronger than 0.5 g/l are capable of obtaining a 5-log10 reduction in viable cells of bacteria such as S. aureus, P. aeruginosa and a 4-log10 reduction for fungi such as C. albicans with a cycle of 20 min (FIG. 2A). On the other hand, for A. niger, the concentration enabling a fungicidal effect to be obtained (i.e. not only fungistatic but additionally with spore eradication) was higher than for the bacteria and over a longer time (2 g/l for 6 hours) (FIG. 2B).

[6] = tested on: P. aeruginosa DSM 939; assay: Minimum Inhibitory Concentration (MIC); format: cell-based; settings: Pseudomonas aeruginosa, DSM939
From the text: as §1, §6

[7] = tested on: S. aureus DSM 799; assay: Minimum Inhibitory Concentration (MIC); format: cell-based; settings: Staphylococcus aureus, DSM799
From the text: as §1, §6

[8] = tested on: A. niger ATCC 16404; assay: Minimum Inhibitory Concentration (MIC); format: cell-based; settings: Aspergillus niger, ATCC16404
From the text: as §1, §6

[9] = tested on: P. aeruginosa DSM 939; assay: In vitro model of nebulizer disinfection with aqueous solution; format: cell-based, Pseudomonas aeruginosa; settings: for log reduction for bacteria (P. aeruginosa): 80 mg/ml; for log reduction for bacteria (P. aeruginosa) / log reduction in viable cells of P. aeruginosa: 20 minutes; for log reduction in viable cells of P. aeruginosa: 0.5 g/l; for dose needed to ensure nebulizer disinfection: P. aeruginosa DSM 939
From the text: as §1, §2, §3, §4

[10] = tested on: C. albicans DSM 1386; assay: as above; format: cell-based, Candida albicans; settings: for log reduction for C. albicans: 190 mg/ml; for log reduction in viable cells of C. albicans: 0.5 g/l, 20 minutes; for dose needed to ensure nebulizer disinfection: C. albicans DSM 1386
From the text: as §1, §2, §3, §4

[11] = tested on: Candida albicans DSM 1386 (ATCC 10231); assay: Disinfecting antifungal activity on infected nebulizer as per standard FR-EN 1275; format: cell-based; settings: aqueous solution 0.5 g/l, 1 h
Method: as §1
(§7) Nebulizer contamination with fungi was obtained in vitro by soaking the inner part of nebulizers (Pari LC, SPRINT SP, Pari, Germany) in 1·10^7 fungi suspension at 5·10^7 cfu/mL prepared in Sabouraud broth. After incubation the nebulizer was soaked in sterile water containing squalamine at the determined concentrations in relation to the fungal strains under consideration (i.e. 0.5 g/L for C. albicans (1 hour soaking) and 2 g/l for A. niger (6 h soaking). The nebulizer was then rinsed with two successive solutions of sterile water. The fungal count was performed on the second wash bath. The count of fungal colonies was performed on malt extract agar-agar (48 h).

[12] = tested on: Aspergillus niger ATCC 16404; assay: as above; format: cell-based; settings: for log reduction of viable spore cells of A. Niger: 2 g/l, 6 hours; for log reduction in viable cells of A. niger: aqueous solution 0.5 g/l, 1 h
Method: as §1
as §7, with “0.5 g/L for C. albicans (1 hour soaking) and 2 g/l for A. niger (6 h soaking).” left out

[13] = tested on: spores of A. Niger; settings: acid glutaraldehyde 0.5%; within 100 minutes; cited from earlier work
[14] = tested on: S. aureus; settings: topical lipophilic formulation, 0.5 to 5 mg/ml, 10^6 cfu/ml, cited from earlier work
[15] = tested on: A. niger; settings: in vitro, within 24 hours; cited from earlier work
[16] = Cutaneous toxicity on the backs of shaven mice; format: in vivo; settings: concentrations in aqueous solution of 2 000
From the text: Cutaneous toxicity was examined over a period of 15 days by applying a squalamine ointment onto the backs of shaven mice (batch of 10 mice).

[17] = Effect on plastic or metallic material (corrosion)

| Structure (SMILES) | log reduction for bacteria (S. aureus) [1] [log] | log reduction in viable cells of S. aureus [1] [log] | dose needed to ensure nebulizer disinfection [1] [mg/L] | log reduction of viable cells of P. aeruginosa [2] [log] | log reduction of viable cells of S. aureus [3] [log] | log reduction in viable cells of A. niger [4] [log] | concentration enabling a fungicidal effect (with spore eradication) on A. niger [4] [g/L] | dose needed to ensure nebulizer disinfection [4] [mg/L] | decrease for A. Niger [4] | MIC [5] [µg/mL] | MIC [6] [µg/mL] | MIC [7] [µg/mL] | MIC [8] [µg/mL] | log reduction for bacteria (P. aeruginosa) [9] [log] | log reduction in viable cells of P. aeruginosa [9] [log] | dose needed to ensure nebulizer disinfection [9] [mg/L] | log reduction for C. albicans [10] [log] | log reduction in viable cells of C. albicans [10] [log] | dose needed to ensure nebulizer disinfection [10] [mg/L] | log reduction in viable cells of C. albicans [11] [log] | other results |
| --- | --- | --- | --- | --- | --- | --- | --- | --- | --- | --- | --- | --- | --- | --- | --- | --- | --- | --- | --- | --- | --- |
| CC(C)CCC[C@@H](C)[C@H]1CCC2C3C(CC[C@@]21C)[C@@]1(C)CC[C@H](O)CC1C[C@@H]3NCCCCN (stereo partly drawn) [ASD 2] | 2 | 5 | 210 | 8 | 8 | 4 | 2 | 2000 | no significant decrease | 8 (≈ 16.8 µM) | 8 (≈ 16.8 µM) | 2 (≈ 4.21 µM) | 8 (≈ 16.8 µM) | 3 | 5 | 130 | 2 | 4 | 500 | 6 | log reduction of viable spore cells of A. Niger [12]: 4 log; log reduction in viable cells of A. niger [12]: 6 log |
| O=CCCCC=O [acid glutaraldehyde, glutaraldehyde] |  |  |  |  |  |  |  |  |  |  |  |  |  |  |  |  |  |  |  |  | log reduction in the number of spores of A. Niger [13]: 1 log |
| CC(C)[C@@H](CC[C@@H](C)[C@H]1CCC2C3C(CC[C@@]21C)[C@@]1(C)CC[C@H](NCCCNCCCCN)CC1C[C@H]3O)OS(=O)(=O)O (stereo partly drawn) [squalamine] | 2 | 5 | 210 | 8 | 8 | 4 | 2 | 2000 | no significant decrease | 16 (≈ 25.5 µM) | 4 (≈ 6.37 µM) | 2 (≈ 3.18 µM) | 16 (≈ 25.5 µM) | 3 | 5 | 130 | 2 | 4 | 500 | 6 | log reduction of S. aureus ([14]; within 24 hours): 4 log; log reduction of S. aureus ([14]; within 48 hours): 5 log; log reduction of A. niger [15]: 4 log; cutaneous toxicity [16]: do not cause cutaneous toxicity; degradation of the equipment treated and/or in contact with the product [17]: do not induce any degradation; log reduction of viable spore cells of A. Niger [12]: 4 log; log reduction in viable cells of A. niger [12]: 6 log; log reduction of spores ([12]; aqueous solution of 2 g/l): 4 log |
